Measurements: paper PMC6478789, “A chemical toolbox for the study of bromodomains and epigenetic signaling” (Nature Communications, 2019)
Where two headings read alike, the source gives them in different places.

Legend:
CBP = target: T1, CBP (Homo sapiens, UniProt Q92793); details: ITC data, cited from earlier work
T1 construct: Recombinant protein domains (bromodomain or kinases) at a concentration of 2 μM

CAMK1G = target: T2, CAMK1G (Homo sapiens, UniProt Q96NX5); experiment: Temperature shift assay (protein kinases); assay type: binding; details: 10 μM probe; average of three measurements
T2 construct: Recombinant protein domains (bromodomain or kinases) at a concentration of 2 μM
Protocol: (§1) Temperature shift assays have been described by Fedorov et al.[46]. Recombinant protein domains (bromodomain or kinases) at a concentration of 2 μM in 10 mM HEPES, pH 7.5, and 500 mM NaCl were mixed with 10 μM of chemical probes. Temperature-dependent protein unfolding profiles were measured using a Real-Time PCR Mx3005p machine (Stratagene).

MERTK = target: T3, MERTK (Homo sapiens, UniProt Q12866); experiment: Temperature shift assay (protein kinases); assay type: binding; details: 10 μM probe; average of three measurements
T3 construct: Recombinant protein domains (bromodomain or kinases) at a concentration of 2 μM
T3 sequence (Q12866 587-858 limits assumed): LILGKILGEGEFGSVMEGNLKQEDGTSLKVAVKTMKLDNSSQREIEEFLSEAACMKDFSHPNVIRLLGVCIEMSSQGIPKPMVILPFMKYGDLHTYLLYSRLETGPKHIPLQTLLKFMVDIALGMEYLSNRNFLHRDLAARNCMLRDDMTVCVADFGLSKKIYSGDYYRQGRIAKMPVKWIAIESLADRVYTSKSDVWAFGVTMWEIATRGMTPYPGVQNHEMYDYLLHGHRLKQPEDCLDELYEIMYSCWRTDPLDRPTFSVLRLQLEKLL
Protocol: as §1

PHGK2 = target: T4, PHGK2 (Homo sapiens, UniProt P15735); experiment: Temperature shift assay (protein kinases); assay type: binding; details: 10 μM probe; average of three measurements
T4 construct: Recombinant protein domains (bromodomain or kinases) at a concentration of 2 μM
T4 sequence (P15735 24-291 limits assumed): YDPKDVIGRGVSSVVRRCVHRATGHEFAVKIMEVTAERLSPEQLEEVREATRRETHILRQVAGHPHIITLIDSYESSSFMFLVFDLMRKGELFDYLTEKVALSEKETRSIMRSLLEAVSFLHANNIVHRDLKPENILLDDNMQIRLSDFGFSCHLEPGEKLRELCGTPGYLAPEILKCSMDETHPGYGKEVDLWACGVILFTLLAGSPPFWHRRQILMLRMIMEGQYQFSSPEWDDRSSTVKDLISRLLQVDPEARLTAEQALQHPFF
Protocol: as §1

BRAF = target: T5, BRAF (Homo sapiens, UniProt P15056); experiment: Temperature shift assay (protein kinases); assay type: binding; details: 10 μM probe; average of three measurements
T5 construct: Recombinant protein domains (bromodomain or kinases) at a concentration of 2 μM
Protocol: as §1

TTK = target: T6, TTK (Homo sapiens, UniProt P33981); experiment: Temperature shift assay (protein kinases); assay type: binding; details: 10 μM probe; average of three measurements
T6 construct: Recombinant protein domains (bromodomain or kinases) at a concentration of 2 μM
T6 sequence (P33981 525-791 limits assumed): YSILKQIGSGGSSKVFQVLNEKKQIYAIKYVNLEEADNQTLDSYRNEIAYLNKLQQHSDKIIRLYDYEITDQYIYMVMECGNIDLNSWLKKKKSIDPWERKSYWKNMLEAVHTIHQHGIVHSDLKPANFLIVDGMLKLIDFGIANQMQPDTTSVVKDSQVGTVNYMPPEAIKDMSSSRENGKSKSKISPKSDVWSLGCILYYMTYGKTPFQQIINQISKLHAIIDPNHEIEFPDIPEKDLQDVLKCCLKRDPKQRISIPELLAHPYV
Protocol: as §1

ABL1 = target: T7, ABL1 (Homo sapiens, UniProt P00519); experiment: Temperature shift assay (protein kinases); assay type: binding; details: 10 μM probe; average of three measurements
T7 construct: Recombinant protein domains (bromodomain or kinases) at a concentration of 2 μM
T7 sequence (P00519 242-493 limits assumed): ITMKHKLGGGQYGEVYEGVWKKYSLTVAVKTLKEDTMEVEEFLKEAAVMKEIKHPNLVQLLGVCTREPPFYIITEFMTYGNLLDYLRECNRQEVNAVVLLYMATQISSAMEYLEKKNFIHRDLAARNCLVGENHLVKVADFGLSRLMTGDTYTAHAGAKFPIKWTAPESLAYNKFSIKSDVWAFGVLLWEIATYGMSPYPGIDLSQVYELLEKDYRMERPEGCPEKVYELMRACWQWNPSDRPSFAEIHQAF
Protocol: as §1

DYRK1A = target: T8, DYRK1A (Homo sapiens, UniProt Q13627); experiment: Temperature shift assay (protein kinases); assay type: binding; details: 10 μM probe; average of three measurements
T8 construct: Recombinant protein domains (bromodomain or kinases) at a concentration of 2 μM
Protocol: as §1

STK3 = target: T9, STK3 (Homo sapiens, UniProt Q13188); experiment: Temperature shift assay (protein kinases); assay type: binding; details: 10 μM probe; average of three measurements
T9 construct: Recombinant protein domains (bromodomain or kinases) at a concentration of 2 μM
T9 sequence (Q13188 27-278 limits assumed): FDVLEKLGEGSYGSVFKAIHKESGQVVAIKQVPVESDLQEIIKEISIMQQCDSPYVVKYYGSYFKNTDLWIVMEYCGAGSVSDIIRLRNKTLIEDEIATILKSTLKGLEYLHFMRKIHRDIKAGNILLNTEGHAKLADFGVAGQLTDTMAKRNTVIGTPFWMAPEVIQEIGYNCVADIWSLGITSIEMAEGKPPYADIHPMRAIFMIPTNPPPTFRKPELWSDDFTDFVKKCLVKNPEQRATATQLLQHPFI
Protocol: as §1

CASK = target: T10, CASK (Homo sapiens, UniProt O14936); experiment: Temperature shift assay (protein kinases); assay type: binding; details: 10 μM probe; average of three measurements
T10 construct: Recombinant protein domains (bromodomain or kinases) at a concentration of 2 μM
T10 sequence (O14936 12-276 limits assumed): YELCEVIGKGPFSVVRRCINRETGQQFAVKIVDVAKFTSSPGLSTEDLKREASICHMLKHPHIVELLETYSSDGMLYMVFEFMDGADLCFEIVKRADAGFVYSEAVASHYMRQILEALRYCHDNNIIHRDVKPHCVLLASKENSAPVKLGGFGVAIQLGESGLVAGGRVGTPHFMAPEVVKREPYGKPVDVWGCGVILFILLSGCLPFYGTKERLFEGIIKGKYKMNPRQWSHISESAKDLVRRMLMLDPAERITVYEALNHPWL
Protocol: as §1

FES = target: T11, FES (Homo sapiens, UniProt P07332); experiment: Temperature shift assay (protein kinases); assay type: binding; details: 10 μM probe; average of three measurements
T11 construct: Recombinant protein domains (bromodomain or kinases) at a concentration of 2 μM
Protocol: as §1

BRPF2 = details: ITC data, cited from earlier work

T5 sequence (P15056 457-717 limits assumed, species assumed): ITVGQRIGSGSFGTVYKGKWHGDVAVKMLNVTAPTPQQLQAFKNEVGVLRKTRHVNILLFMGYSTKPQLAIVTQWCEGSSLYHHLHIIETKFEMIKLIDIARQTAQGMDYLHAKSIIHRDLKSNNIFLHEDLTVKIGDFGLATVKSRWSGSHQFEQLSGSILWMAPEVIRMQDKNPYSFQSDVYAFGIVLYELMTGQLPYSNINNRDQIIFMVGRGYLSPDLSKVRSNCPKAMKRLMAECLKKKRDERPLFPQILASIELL
T11 sequence (P07332 561-822 limits assumed, species assumed): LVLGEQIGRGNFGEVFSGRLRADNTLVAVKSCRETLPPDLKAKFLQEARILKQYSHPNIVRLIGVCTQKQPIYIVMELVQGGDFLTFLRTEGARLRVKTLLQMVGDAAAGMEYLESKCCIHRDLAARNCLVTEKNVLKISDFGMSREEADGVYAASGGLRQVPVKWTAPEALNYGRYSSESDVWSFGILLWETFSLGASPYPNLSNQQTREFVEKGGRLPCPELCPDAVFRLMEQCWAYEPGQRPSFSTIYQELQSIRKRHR
T2 sequence (Q96NX5 23-277 limits assumed, species assumed): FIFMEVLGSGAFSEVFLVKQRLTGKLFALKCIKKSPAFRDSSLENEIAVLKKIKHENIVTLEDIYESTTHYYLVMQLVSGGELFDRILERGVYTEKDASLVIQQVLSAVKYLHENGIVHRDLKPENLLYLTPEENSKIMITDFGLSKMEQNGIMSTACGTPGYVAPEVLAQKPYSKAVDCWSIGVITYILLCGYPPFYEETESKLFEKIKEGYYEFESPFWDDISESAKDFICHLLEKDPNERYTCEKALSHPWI
T1 sequence (Q92793 1085-1192 limits assumed): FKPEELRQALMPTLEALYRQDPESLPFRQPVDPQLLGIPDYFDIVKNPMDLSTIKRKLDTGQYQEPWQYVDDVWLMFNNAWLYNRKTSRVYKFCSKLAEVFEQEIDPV

Temperature shift (CAMK1G) [Kelvin]	Temperature shift (MERTK) [Kelvin]	Temperature shift (PHGK2) [Kelvin]	Temperature shift (BRAF) [Kelvin]	Temperature shift (TTK) [Kelvin]	Temperature shift (ABL1) [Kelvin]	Temperature shift (DYRK1A) [Kelvin]	Temperature shift (STK3) [Kelvin]	Temperature shift (CASK) [Kelvin]	Temperature shift (FES) [Kelvin]	SMILES	Kd (CBP; ref 13 (suppl.), read-out: KD (nM), off target CBP) [nM]	Kd (BRPF2; ref 13 (suppl.)) [nM]	Kd (BRPF2; ref 11 (suppl.)) [nM]	Kd (CBP; ref 9 (suppl.), read-out: KD (nM), CBP) [nM]
-0.6	-0.2	0.0	0.1	-0.1	0.0	-0.5	0.1	-0.1	0.0	Cc1cc2c(cc1N1C(=O)c3cccc4c(CCCO)ccc(c34)C1=O)n(C)c(=O)n2C [BAY-299]	1390	44	–	–
–	–	–	–	–	–	–	–	–	–	COc1cc2c(cc1NS(=O)(=O)c1ccc(Br)cc1C)n(C)c(=O)n2C [OF-1]	–	–	505	–
-0.3	0.0	-0.1	-0.1	-0.5	0.0	0.2	0.0	-0.1	-0.2	Cc1nnc2c3ccccc3c(N[C@@H](C)[C@H](c3ccccc3)N(C)C)nn12 [L-Moses]	–	–	–	–
-0.2	-0.2	0.1	-0.1	0.0	0.0	-0.4	0.0	0.0	-0.1	CCC(=O)N1CCOc2c(cc(-c3ccc(OC)c(OC)c3)cc2OCC2CCCN(C)C2)C1 (stereo not shown) [I-CBP112]	–	–	–	151
